The values below come from patent US20250195601A1, “TURMERIC OIL ESSENTIAL-OIL BISABOLENE SESQUITERPENOIDS IN THE TREATMENT OF NON-NEURODEGENERATIVE DISEASES” (UNIVERSIDAD DE CUENCA, priority 2023, published 2025).

Common to all, as to format: in vivo, human
In test [1] the test system is patient with executive functions impairment, epilepsy, mental retardation, attention deficit. Kind of test: Clinical course, Case 1. To be noted: before turmeric oil. How it is done: […], due to their academic failure and their refusal to continue taking methylphenidate, it was decided to start using turmeric oil in a dosage of 36 mg/day.
The turmeric oil and two anticonvulsants (valproic acid and clobazam) were administered to the patient.
Conversely, a cognitive enrichment in the patient's profile was evident. This enhancement was reflected in their academic performance and […] general life development. The patient presented seizures relapse and maintained antiepileptic drugs administration.

Test [2] deals with patient with Guillain-Barré syndrome, flaccid tetraplegia. Kind of test: Clinical course and muscle strength, Case 5. Particulars: after three weeks of hospitalization, before turmeric oil. The source says: Patient. They were the child of non-consanguineous parents. Parents referred that one day the patient woke up but could not walk. Noteworthy, the day before this event, they received a COVID vaccine. The patient was taken to a hospital and evaluated in the emergency room. Demyelinating motor polyradiculoneuropathy of severe degree with distal predominance, more significant in lower extremities was reported after performing electromyography and nerve conduction velocity analysis. On the third day at the hospital, the patient lost walking, sitting, neck control and lower and upper extremities mobility. No mechanical ventilation was required.
Thus, the patient was prostrate, and it was recommended to start administering turmeric oil in a dose of 21.6 mg per day.

The test system of test [3] is patient with mixed cerebral palsy, epilepsy, constipation, mental retardation. Kind of test: Clinical course, Case 4. To be noted: with baclofen, before turmeric oil. The source says: Patient. They were the child of non-consanguineous parents, born of a twin pregnancy by cesarean section at 30 weeks' gestation. The patient had multiple complications in their neonatal period with prolonged mechanical ventilation, including neuro-infection and neonatal seizures.
Central hypotonia and peripheral hypertonia, dystonia and dyskinesia, ROT++++/++, bilateral plantar flexor reflex were present.
No advances regarding […] neurological condition were identified. The pharmacological therapy included baclofen to improve muscle tone and levetiracetam to control seizures.
Scoliosis, retractions, and joint deformities were still visible. Dystonias and dyskinesias were persistent.
In the subsequent 7.5 years, the patient had epileptic seizures of irregular onset and insufficient advances in their motor development. Administration of turmeric oil began with a dose of 27 mg per day.

Regarding `COC(=O)C(c1ccccc1)C1CCCCN1` (stereo not drawn) [prolonged-release methylphenidate, methylphenidate], the “result of methylphenidate treatment” value in test [1] was “poor results”.
On to gamma globulin, for which the condition at discharge entry in test [2] was “no improvement”.
Consider `CC[C@@H](C(N)=O)N1CCCC1=O` [levetiracetam], for which, in test [3], the seizures result is recorded as “not controlled”.
